According to PubChem BioAssay AID1963961 (Molecular Pharmacology Branch, DTP, NCI, 2024):

Tested on: K98450-129-R-PDC multicell spheroids, viability
Test: Anticancer human tumor K98450-129-R-PDC patient-derived colon adenocarcinoma cell line growth inhibition [PI3K]
Details: for IC50: curve of first compound; for viability, T/C: stronger effect = lower value
In short: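 Combination activity was assessed by viability in multicellular tumor spheroids carrying HUVEC and MSC components. Agents were tested with PI3K inhibitors from a Cmax-based top dose (or 10 microM) downward in half-log increments.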

[1] = second compound 0.00316 µM, first compound 0.000316 µM
[2] = second compound 0.00316 µM, first compound 0.001 µM
[3] = second compound 0.00316 µM, first compound 0.00316 µM
[4] = second compound 0.00316 µM, first compound 0.01 µM
[5] = second compound 0.00316 µM, first compound 0.0316 µM
[6] = second compound 0.00316 µM, first compound 0.1 µM
[7] = second compound 0.01 µM, first compound 0.000316 µM
[8] = second compound 0.01 µM, first compound 0.001 µM
[9] = second compound 0.01 µM, first compound 0.00316 µM
[10] = second compound 0.01 µM, first compound 0.01 µM
[11] = second compound 0.01 µM, first compound 0.0316 µM
[12] = second compound 0.01 µM, first compound 0.1 µM
[13] = second compound 0.0316 µM, first compound 0.000316 µM
[14] = second compound 0.0316 µM, first compound 0.001 µM
[15] = second compound 0.0316 µM, first compound 0.00316 µM
[16] = second compound 0.0316 µM, first compound 0.01 µM
[17] = second compound 0.0316 µM, first compound 0.0316 µM
[18] = second compound 0.0316 µM, first compound 0.1 µM
[19] = second compound 0.1 µM, first compound 0.000316 µM
[20] = second compound 0.1 µM, first compound 0.001 µM
[21] = second compound 0.1 µM, first compound 0.00316 µM
[22] = second compound 0.1 µM, first compound 0.01 µM
[23] = second compound 0.1 µM, first compound 0.0316 µM
[24] = second compound 0.1 µM, first compound 0.1 µM
[25] = second compound 0.316 µM, first compound 0.000316 µM
[26] = second compound 0.316 µM, first compound 0.001 µM
[27] = second compound 0.316 µM, first compound 0.00316 µM
[28] = second compound 0.316 µM, first compound 0.01 µM
[29] = second compound 0.316 µM, first compound 0.0316 µM
[30] = second compound 0.316 µM, first compound 0.1 µM
[31] = second compound 1 µM, first compound 0.000316 µM
[32] = second compound 1 µM, first compound 0.001 µM
[33] = second compound 1 µM, first compound 0.00316 µM
[34] = second compound 1 µM, first compound 0.01 µM
[35] = second compound 1 µM, first compound 0.0316 µM
[36] = second compound 1 µM, first compound 0.1 µM
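Further: spheroids exposed to agents for seven days before read-out.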

For `CC(=O)c1c(C)c2cnc(Nc3ccc(N4CCNCC4)cn3)nc2n(C2CCCC2)c1=O` + COc1c(OCCCN2CCOCC2)ccc2c3n(c(=NC(=O)c4cnc(N)nc4)nc12)CCN3, the IC50 (second compound 0.00316 µM) was > 100 nM, the IC50 (second compound 0.01 µM) was > 100 nM and the IC50 (second compound 0.0316 µM) was > 100 nM. For the same compound, the IC50 (second compound 0.1 µM) was > 100 nM, the IC50 (second compound 0.316 µM) was > 100 nM and the IC50 (second compound 1 µM) was 46 nM. It also gave a viability, T/C [1] of 114%, a viability, T/C [2] of 119% and a viability, T/C [3] of 93.7%. The viability, T/C [4] was 90.5%, the viability, T/C [5] was 101% and the viability, T/C [6] was 95.8%. The viability, T/C [7] was 109%, the viability, T/C [8] was 101% and the viability, T/C [9] was 97.3%. It also gave a viability, T/C [10] of 91.1%, a viability, T/C [11] of 98.1% and a viability, T/C [12] of 92.4%. It also gave a viability, T/C [13] of 85.7%, a viability, T/C [14] of 96.7% and a viability, T/C [15] of 97.3%. The viability, T/C [16] was 87.6%, the viability, T/C [17] was 86.5% and the viability, T/C [18] was 70.4%. For the same compound, the viability, T/C [19] was 78.9%, the viability, T/C [20] was 81.1% and the viability, T/C [21] was 74.3%. The viability, T/C [22] was 67%, the viability, T/C [23] was 79.3% and the viability, T/C [24] was 72.1%. For the same compound, the viability, T/C [25] was 59%, the viability, T/C [26] was 68.7% and the viability, T/C [27] was 65.7%. The viability, T/C [28] was 58.2%, the viability, T/C [29] was 70% and the viability, T/C [30] was 56.1%. For the same compound, the viability, T/C [31] was 62%, the viability, T/C [32] was 48.5% and the viability, T/C [33] was 51.6%. For the same compound, the viability, T/C [34] was 57.7%, the viability, T/C [35] was 57.8% and the viability, T/C [36] was 38.8%.
`CC(C)n1nc(-c2ccc3oc(N)nc3c2)c2c(N)ncnc21` + COc1c(OCCCN2CCOCC2)ccc2c3n(c(=NC(=O)c4cnc(N)nc4)nc12)CCN3 was tested, and the IC50 (second compound 0.00316 µM) was > 100 nM, the IC50 (second compound 0.01 µM) was > 100 nM and the IC50 (second compound 0.0316 µM) was > 100 nM. For the same compound, the IC50 (second compound 0.1 µM) was > 100 nM, the IC50 (second compound 0.316 µM) was > 100 nM and the IC50 (second compound 1 µM) was 50.7 nM. It also gave a viability, T/C [1] of 107%, a viability, T/C [2] of 97.4% and a viability, T/C [3] of 107%. The viability, T/C [4] was 83.6%, the viability, T/C [5] was 94.1% and the viability, T/C [6] was 72.2%. It also gave a viability, T/C [7] of 114%, a viability, T/C [8] of 86.4% and a viability, T/C [9] of 96%. It also gave a viability, T/C [10] of 92.2%, a viability, T/C [11] of 94.9% and a viability, T/C [12] of 69%. For the same compound, the viability, T/C [13] was 116%, the viability, T/C [14] was 86% and the viability, T/C [15] was 85.2%. For the same compound, the viability, T/C [16] was 67.9%, the viability, T/C [17] was 74% and the viability, T/C [18] was 56.9%. It also gave a viability, T/C [19] of 76.6%, a viability, T/C [20] of 93% and a viability, T/C [21] of 81.7%. For the same compound, the viability, T/C [22] was 78.7%, the viability, T/C [23] was 67.1% and the viability, T/C [24] was 55.5%. The viability, T/C [25] was 58.1%, the viability, T/C [26] was 60.9% and the viability, T/C [27] was 66.1%. It also gave a viability, T/C [28] of 70.4%, a viability, T/C [29] of 73.1% and a viability, T/C [30] of 47.7%. For the same compound, the viability, T/C [31] was 53%, the viability, T/C [32] was 59.4% and the viability, T/C [33] was 58.5%. For the same compound, the viability, T/C [34] was 69.8%, the viability, T/C [35] was 54.8% and the viability, T/C [36] was 35.2%.
For `CCCS(=O)(=O)Nc1ccc(F)c(C(=O)c2c[nH]c3ncc(-c4ccc(Cl)cc4)cc23)c1F` + COc1c(OCCCN2CCOCC2)ccc2c3n(c(=NC(=O)c4cnc(N)nc4)nc12)CCN3, the IC50 (second compound 0.00316 µM) was 5990 nM, the IC50 (second compound 0.01 µM) was 5770 nM and the IC50 (second compound 0.0316 µM) was 5540 nM. The IC50 (second compound 0.1 µM) was 4000 nM, the IC50 (second compound 0.316 µM) was 2710 nM and the IC50 (second compound 1 µM) was 1650 nM. The viability, T/C [5] was 107%, the viability, T/C [6] was 105% and the viability, T/C (second compound 0.00316 µM, first compound 0.316 µM) was 95.1%. For the same compound, the viability, T/C (second compound 0.00316 µM, first compound 1 µM) was 120%, the viability, T/C (second compound 0.00316 µM, first compound 3.16 µM) was 105% and the viability, T/C (second compound 0.00316 µM, first compound 10 µM) was 5.65%. The viability, T/C [11] was 116%, the viability, T/C [12] was 93% and the viability, T/C (second compound 0.01 µM, first compound 0.316 µM) was 93.4%. The viability, T/C (second compound 0.01 µM, first compound 1 µM) was 60.2%, the viability, T/C (second compound 0.01 µM, first compound 3.16 µM) was 93.9% and the viability, T/C (second compound 0.01 µM, first compound 10 µM) was 12.2%. The viability, T/C [17] was 99%, the viability, T/C [18] was 95.5% and the viability, T/C (second compound 0.0316 µM, first compound 0.316 µM) was 82.3%. The viability, T/C (second compound 0.0316 µM, first compound 1 µM) was 78.3%, the viability, T/C (second compound 0.0316 µM, first compound 3.16 µM) was 91.6% and the viability, T/C (second compound 0.0316 µM, first compound 10 µM) was 8.56%. It also gave a viability, T/C [23] of 84%, a viability, T/C [24] of 98.2% and a viability, T/C (second compound 0.1 µM, first compound 0.316 µM) of 76.2%. For the same compound, the viability, T/C (second compound 0.1 µM, first compound 1 µM) was 80.2%, the viability, T/C (second compound 0.1 µM, first compound 3.16 µM) was 61.7% and the viability, T/C (second compound 0.1 µM, first compound 10 µM) was 7.64%. The viability, T/C [29] was 66.5%, the viability, T/C [30] was 79.5% and the viability, T/C (second compound 0.316 µM, first compound 0.316 µM) was 72%. For the same compound, the viability, T/C (second compound 0.316 µM, first compound 1 µM) was 80.2%, the viability, T/C (second compound 0.316 µM, first compound 3.16 µM) was 46.2% and the viability, T/C (second compound 0.316 µM, first compound 10 µM) was 7.49%. It also gave a viability, T/C [35] of 57.6%, a viability, T/C [36] of 53.8% and a viability, T/C (second compound 1 µM, first compound 0.316 µM) of 54.3%. The viability, T/C (second compound 1 µM, first compound 1 µM) was 59.9%, the viability, T/C (second compound 1 µM, first compound 3.16 µM) was 41.9% and the viability, T/C (second compound 1 µM, first compound 10 µM) was 7.62%.
